From paper PMC3243694, “Integrated Dataset of Screening Hits against Multiple Neglected Disease Pathogens” (PLoS Neglected Tropical Diseases, 2011)

Key:
[1] = system: Brugia malayi microfilariae; experiment: Anti-Brugia malayi microfilariae motility assay; format: cell-based; settings: B. malayi microfilariae; 12.5 µM
Protocol: (§1) The compound set was tested against the following parasites: intra-erythrocytic forms in human red blood cells of P. falciparum K1 strain (malaria), [16], [32], [33], [35], bloodstream forms of T. brucei Squib 427 strain (human African trypanosomiasis, HAT), [31], [32], [34], intracellular amastigotes of T. cruzi Tulahuen CL2, beta- galactosidase strain (Chagas' Disease), [32]–[35], intracellular amastigotes of L. infantum MHOM/MA(BE)/67 (leishmaniasis), [32]–[36], larval and/or adult worms of S. mansoni Puerto Rican strain (schistosomiasis), [31], [37], microfilariae of B. malayi (lymphatic filariasis), [30] and microfilariae of O. ochengi or O. lienalis (onchocerciasis), [30]. It should be noted that the human pathogen for onchocerciasis is Onchocerca volvulus, but due to lack of a suitable in vitro assay or animal models for this pathogen, O. ochengi and lienalis, which are both animal pathogens, are used in the primary and secondary assays, [30].
(§2) As result of logistics issues attributed to lost shipments of some compounds, only 6160 molecules of the 10,000 compound set were tested, at a uniform molarity, against B. malayi, including 6063 against microfilariae and 756 against adult worms (these sets overlap). […] Greatest priority was given to compounds with activity against adult worms, as no macrofilaricide is available for use in control campaigns and the activity of ivermectin as a microfilaricidal agent is unlikely to be bettered in a new series. Of the test set, 53 compounds met the activity criterion for microfilariae (100% motility reduction) and an additional 58 inhibited adult worm motility ≥75% at 10 µM. These were titrated to determine an IC50 value to support prioritization. Following cytotoxicity triage [structures # 1, 4, 6], eight compounds met the activity criterion for adult worms (i.e., 100% inhibition of adult worm motility), four of which were also active against microfilariae [structures # 14, 29, 30, 32]. […] Of these, the most interesting was TDR76699 [structure # 29]; this compound has very good activity against adult worms (IC50 = 0.1 µg/ml) and is also active against microfilariae (IC50 = 0.7 µg/ml). None of the other compounds tested against adult parasites had IC50 values ≤0.5 µg/ml, a threshold which would reduce concerns about specificity. However, a few series [structures # 31, 33, 34], appear interesting for future medicinal chemistry projects.

[2] = system: MRC-5 cell line (diploid human embryonic lung fibroblast); experiment: Cytotoxicity on MRC-5 cells; format: cell-based
Text: [table] An important part of the screen is the evaluation of all compounds for cytotoxicity using the diploid human embryonic lung fibroblast MRC-5 cell line (Figure 2). Further evaluation of cytotoxicity also takes advantage of the assays for intracellular protozoan parasites, as in the case of L. infantum and T. cruzi, which include murine peritoneal macrophage host cells and MRC-5SV2 human lung fibroblast cells, respectively, in the culture system.

[3] = system: Trypanosoma brucei brucei Squib-427 strain; experiment: Antitrypanosomal activity assay, T. brucei (resazurin); format: cell-based; settings: T. brucei Squib 427 bloodstream forms, 72 h
Protocol: as §1

[4] = system: Onchocerca (lienalis or ochengi) microfilariae; experiment: Anti-Onchocerca microfilariae motility assay; format: cell-based, Onchocerca lienalis or O. ochengi
Protocol: as §1
4240 compound s were screened against O. ochengi at the University of Buea in Cameroon, while a subset of […] compounds was successfully screened in UK by the Northwick Park Institute for Medical Research against O. lienalis, at a uniform molarity. […] After removing molecules that were toxic to mammalian cells (IC50<5 µg/ml), 292 molecules remained for further evaluation. […] From the latter sub-set, […] distinct chemical series and one singleton [structure # 35] were active against both microfilaria and adults. One series [structures # 2, 3] was deemed not interesting due to lack of selectivity against mammalian cells. The remaining series is being transferred to ANDI for further progression as part of a new collaboration.

[5] = system: Schistosoma mansoni adult worms; experiment: Anti-Schistosoma activity assay (adult worm motility); format: cell-based; settings: S. mansoni adult worms; 12.5 µM (method: 10 µg/ml or 12.5 µM)
Protocol: as §1
A subset of 9478 of the 10,000 compound collection was tested against the Puerto Rican strain of S. mansoni. 6144 of these were tested in a primary larval assay followed by the ex-vivo adult secondary screen. The remainder was screened only in the adult assay. […] The 65 compounds were sorted by chemical attractiveness, potency against adult schistosomes in culture, selectivity against other parasites, and toxicity to mammalian cells in culture. Based on this analysis, 5 series encompassing 13 compounds were chosen for advancement through the African Network for Drug and Diagnostic Innovation (ANDI) and other PDPs. Representative structures [structures # 13, 27, 28] are shown (Table S1). These compounds are unburdened by obvious toxic moieties, have acceptable compliance with the Lipinski rules, are selectively active against schistosomes and are not overtly toxic to mammalian cells. It has unfortunately not been possible to titrate all of these hits in culture; of about 50% for which such data are available, none has an IC50<2 µg/ml (which is the initial potency criteria).

[6] = system: Plasmodium falciparum K1 strain; experiment: Anti-Plasmodium activity assay (Malstat); format: cell-based; settings: P. falciparum K1, 72 h
Protocol: as §1

[7] = system: Brugia malayi adult worms; experiment: Anti-Brugia malayi adult worm motility assay; format: cell-based; settings: B. malayi adult worms; 12.5 µM
Text: as §2, with “In some cases, particularly for the antifilarial screens, a second whole organism test with adult stage parasites is included prior to animal evaluation. The decision to utilize microfilariae for primary screening was based on throughput and biological considerations. It is difficult to acquire enough adult filariae to enable screening more than 1000 compounds per year, a rate far lower than needed for timely evaluation of the available compounds. In light of this situation, and considering that we are targeting molecules that are active on both stages, microfilariae screening was adopted as a suitable filter to identify compounds with potential macrofilaricidal activity. As” for “As”, “Of the test set, 53 compounds met the activity criterion for microfilariae (100% motility reduction) and an additional 58 inhibited adult worm motility ≥75% at 10 µM.” left out

[8] = system: Trypanosoma cruzi, Tulahuen CL2 strain; experiment: Antitrypanosomal activity assay, T. cruzi in MRC-5 cells; format: cell-based; settings: T. cruzi Tulahuen CL2 in MRC-5 cells, 7 days
Protocol: as §1
171 of the 744 actives passed the initial criterion of IC50<1 µg/ml for T. cruzi Tulahuen CL2, beta galactosidase strain maintained on MRC-5SV2 cells in MEM medium (MRC-5 cell/parasite inoculum: 4.10^3 cells/well+4.10^4 parasites/well), supplemented with […] L-glutamine, 16.5 mM NaHCO3 and 5% heat inactivated fetal calf serum. […] Of these, 109 were eliminated [structures #1–6] for poor selectivity versus mammalian cells (SI<50) and an additional 11 due to undesirable chemical attributes. The remaining 51 compounds were sorted into 10 series (45 compounds) and 6 singletons [structures # 21, 22]. Two of these series with excellent potency against T. cruzi, limited activity against other protozoa and SI values >50 (not shown), have been transferred to DNDi for further evaluation.

| Structure (SMILES) | LF/MF % Motility Reduction at 12.5µM [1] [%] | CYT IC50 [2] [µg/mL] | HAT IC50 [3] [µg/mL] | ONC/MF % Motility Reduction at 12.5µM [4] [%] | SCH % Motility Reduction at 12.5µM [5] [%] | MAL IC50 [6] [µg/mL] | LF/AW % Motility Reduction at 12.5µM [7] [%] | CHA IC50 [8] [µg/mL] |
| --- | --- | --- | --- | --- | --- | --- | --- | --- |
| O=C(COc1cccc2c1CCN(Cc1ccccc1F)C2=O)N1CCC(Cc2ccccc2)CC1 [TDR77144] | 100 | 4.56 | 0.47 | 0 | 0 | 4.54 | 100 | 0.56 |
| O=C(Nc1nc2c(s1)CSc1ccccc1-2)C1CCCN1S(=O)(=O)c1cccs1 (stereo not drawn) [TDR83016] | 100 | 1.88 | 0.45 | 100 | 100 | 3.71 | 0 | 0.5 |
| CN(C)CCN(C(=O)c1cccc(N2C(=O)CCC2=O)c1)c1nc2ccc(Br)cc2s1 [TDR79337] |  | >16.14 | 0.36 | 0 | 33 | 1.45 | 0 | 4.94 |
| O=C(c1ccccc1)N1CCN(c2ccc(Nc3ccccn3)nn2)CC1 [TDR86082] | 0 | >10.8 | >10.8 | 0 | 0 | >10.8 |  | >10.8 |
| O=C(Cc1ccc(F)cc1)Nc1nc(-c2ccccn2)cs1 [TDR82963] | 0 | >9.4 | 0.31 | 23 | 0 | 2.97 |  | 0.33 |
| O=C(Cc1csc(NC(=O)C2CCC(=O)N2)n1)NCc1ccccn1 (stereo not drawn) [TDR84826] | 20 | >10.78 | >10.78 | 50 | 100 | >10.78 |  | >10.78 |
| COc1cccc2sc(Nc3nnc(-c4cccs4)o3)nc12 [TDR77585] | 100 | 1.83 | 0.35 |  | 0 | 1.25 | 50 | 0.31 |
| CSc1cccc(C(=O)N(Cc2cccnc2)c2nc3ccc(S(C)(=O)=O)cc3s2)c1 [TDR84433] | 0 | >14.09 | >14.09 | 0 | 0 | 8.28 |  | 0.38 |
| O=C(Nc1nc2c(F)cc(F)cc2s1)c1nc2ccccc2s1 [TDR77323] | 100 | >10.42 |  |  | 0 | >10.42 | 50 | >10.42 |
| CS(=O)(=O)c1ccc2nc(N(Cc3cccnc3)C(=O)c3ccc4ccccc4c3)sc2c1 [TDR84431] | 0 | >14.21 | >14.21 | 0 | 0 | >14.21 |  | 0.23 |
| COc1ccc(SCC(=O)Nc2nc(-c3ccccn3)cs2)cc1 [TDR83845] | 0 | >10.72 | 0.35 | 86 | 0 | >10.72 |  | 0.36 |
